Source: patent US12507703B2, “Methods, devices and compositions for preserving human milk” (The Trustees of Princeton University, priority 2023, dated 2025)
Where “and” joins values, the source holds several entries; their conditions need not be identical. Identical values can stand only once.

These molecules were tested on lipase (assay: Lipase/lipolysis assay (EnzChek Lipase Substrate, quenched BODIPY-fatty acid conjugate) on stored human milk; further: test concentration or dose not given here).

Row | Compound | Lipase (RFU)
1 | OC[C@H]1O[C@@](CO)(O[C@H]2O[C@H](CO)[C@@H](O)[C@H](O)[C@H]2O)[C@@H](O[C@H]2O[C@H](CO)[C@@H](O)[C@H](O)[C@H]2O)[C@@H]1O [D-(+)-Melezitose] | 886.4563 RFU
2 | O.O.OC[C@H]1O[C@H](O[C@H]2O[C@H](CO)[C@@H](O)[C@H](O)[C@H]2O)[C@H](O)[C@@H](O)[C@@H]1O [D-(+)-Trehalose dihydrate] | 1045.976 RFU
3 | OC[C@H]1O[C@H](O[C@H]2O[C@H](CO)[C@@H](O)[C@H](O)[C@H]2O)[C@H](O)[C@@H](O)[C@@H]1O [D-(+)-Trehalose] | 893.2005 RFU and 909.0228 RFU
4 | OC[C@H]1OC(O)[C@H](O)[C@@H](O)[C@@H]1O (stereo partly drawn) [D--Glucose] | 992.2563 RFU
5 | OC[C@@H](O)C(O)[C@H](O)CO [D-Arabitol] | 977.3738 RFU and 986.8626 RFU
6 | N=C(N)NCCC[C@@H](N)C(=O)O [D-Arginine] | 1215.288 RFU
7 | OC[C@H]1O[C@@H](O[C@H]2[C@H](O)[C@@H](O)[C@H](O)O[C@@H]2CO)[C@H](O)[C@@H](O)[C@@H]1O [D-Cellobiose] | 785.8282 RFU
8 | C[C@@H]1NC(=O)N[C@@H]1CCCCCC(=O)O [D-Desthiobiotin] | 791.1157 RFU
9 | CCCCCCCCCCCCCCC[C@@H](O)[C@@H](N)CO [D-Erythro-dihydrosphingosine] | 1051.007 RFU
10 | O=C(O)[C@H](O)[C@@H](O)[C@H](O)[C@H](O)CO [D-Gluconic Acid] | 876.4287 RFU
11 | N[C@@H](C(=O)O)[C@@H](O)[C@H](O)[C@H](O)CO [D-Glucosaminic Acid] | 794.5821 RFU
12 | O=C[C@H](O)[C@@H](O)[C@H](O)[C@H](O)COP(=O)([O-])[O-].[Na+].[Na+] [D-Glucose 6-phosphate (disodium salt)] | 1238.699 RFU
13 | O=P(O)(O)O[C@H]1O[C@H](CO)[C@@H](O)[C@H](O)[C@H]1O [D-Glucose-1-Phosphate] | 853.7765 RFU and 929.0604 RFU
14 | O=C[C@H](O)[C@H]1OC(=O)[C@@H](O)[C@H]1O [D-Glucuronic acid lactone] | 1111.254 RFU
15 | N[C@H](CCC(=O)O)C(=O)O [D-Glutamic Acid] | 1176.72 RFU
16 | O=C(O)C[C@@H](O)C(=O)O [D-Malic Acid] | 752.7528 RFU
17 | O=P(O)(O)O[C@H]1O[C@H](CO)[C@@H](O)[C@H](O)[C@@H]1O [D-Mannose-1-Phosphate] | 1121.007 RFU
18 | OC[C@H]1O[C@@](CO)(O[C@H]2O[C@H](CO)[C@@H](O)[C@H](O)[C@H]2O)[C@@H](O[C@H]2O[C@H](CO)[C@@H](O)[C@H](O)[C@H]2O)[C@@H]1O [D-Melezitose] | 1021.506 RFU
19 | OC[C@H]1O[C@H](OCC2O[C@@H](O)[C@H](O)[C@@H](O)[C@@H]2O)[C@H](O)[C@@H](O)[C@H]1O (stereo partly drawn) [D-Melibiose] | 850.0787 RFU and 747.8737 RFU
20 | OC[C@H]1O[C@H](OC[C@H]2O[C@H](O[C@H]3[C@H](O)[C@@H](O)C(O)O[C@@H]3CO)[C@H](O)[C@@H](O)[C@@H]2O)[C@H](O)[C@@H](O)[C@@H]1O (stereo partly drawn) [D-Panose] | 982.4149 RFU
21 | O=C(CO)[C@H](O)[C@H](O)[C@H](O)CO [D-Psicose] | 990.8733 RFU
22 | OC[C@H]1O[C@H](OC[C@H]2O[C@H](O[C@]3(CO)O[C@H](CO)[C@@H](O)[C@@H]3O)[C@H](O)[C@@H](O)[C@@H]2O)[C@H](O)[C@@H](O)[C@H]1O [D-Raffinose] | 981.0683 RFU

Row | Compound | Lipase (RFU)
23 | O=C1O[C@H](CO)[C@@H](O)[C@H]1O [D-Ribonolactone] | 702.8507 RFU
24 | O=C(CO)[C@@H](O)[C@@H](O)[C@H](O)CO [D-Tagatose] | 939.2844 RFU
25 | O=C(O)[C@@H](O)[C@H](O)C(=O)O [D-Tartaric Acid] | 685.8128 RFU
26 | OC1C(O)C(O)C(O)C(O)C1O [D-chiro-Inositol] | 896.4132 RFU
27 | CCCCCCCCCCCCC/C=C/[C@@H](O)[C@@H](N)CO [D-erythro-Sphingosine] | 823.3956 RFU
28 | CC(=O)Oc1c(C)c(C)c2c(c1C)CCC(C)(CCC[C@H](C)CCC[C@H](C)CCCC(C)C)O2 (stereo partly drawn) [D-α-Tocopherol acetate] | 1194.717 RFU
29 | CC1=C(C)C(=O)C(CC[C@](C)(O)CCC[C@H](C)CCC[C@H](C)CCCC(C)C)=C(C)C1=O [D-α-Tocopherylquinone] | 598.2224 RFU
30 | COc1ccc2c(c1)OC(O)C(=O)N2O (centres unmarked) [DIMBOA] | 910.6705 RFU
31 | CCCCCCCCCCCCCCCC(=O)OC[C@H](COP(=O)([O-])OCC[N+](C)(C)C)OC(=O)CCCCCCCCCCCCCCC [DPPC] | 959.6761 RFU
32 | O=c1c(-c2ccc(O)cc2)coc2cc(O[C@@H]3O[C@H](CO)[C@@H](O)[C@H](O)[C@H]3O)ccc12 [Daidzin] | 828.0829 RFU
33 | C/C=C/C(=O)C1=C(C)C=CCC1(C)C [Damascenone] | 912.4849 RFU
34 | O=C([O-])C(O)Cc1ccc(O)c(O)c1.[Na+] (centres unmarked) [Danshensu (sodium salt)] | 948.7665 RFU
35 | CCCCCCCCCC=O [Decyl aldehyde] | 807.9785 RFU and 682.2968 RFU
36 | COc1cc2c(cc1OC)[C@@H]1C(=O)c3ccc4c(c3O[C@@H]1CO2)C=CC(C)(C)O4 [Deguelin] | 955.3932 RFU
37 | OC[C@H]1O[C@@H](Oc2cc3c(O)cc(O)cc3[o+]c2-c2cc(O)c(O)c(O)c2)[C@H](O)[C@@H](O)[C@@H]1O.[Cl-] [Delphinidin 3-glucoside (chloride)] | 843.0852 RFU
38 | Oc1cc(O)c2cc(O)c(-c3cc(O)c(O)c(O)c3)[o+]c2c1.[Cl-] [Delphinidin (chloride)] | 816.1782 RFU
39 | Cc1cc(O)cc2c1O[C@](C)(CCC[C@H](C)CCC[C@H](C)CCCC(C)C)CC2 [Delta-Tocopherol] | 1328.881 RFU
40 | CC(=O)c1ccc2c(c1)C=CC(C)(C)O2 [Demethoxyencecalin] | 1050.951 RFU
41 | CC(C)=CCc1cc2ccc(=O)oc2cc1O [Demethylsuberosin] | 917.5135 RFU
42 | N[C@@H](CNC(=O)C(=O)O)C(=O)O [Dencichine] | 1365.261 RFU
43 | C[C@]12CC[C@H]3[C@@H](CCC4=CC(=O)CC[C@@]43C)[C@@H]1CC[C@@H]2C(=O)CO [Deoxycorticosterone] | 992.8813 RFU
44 | C=CCSSCC=C [Diallyl disulfide] | 1000.398 RFU and 1055.55 RFU

Row | Compound | Lipase (RFU)
45 | c1ccc(CSSCc2ccccc2)cc1 [Dibenzyl disulfide] | 1113.399 RFU
46 | COc1ccc([C@@H]2CC(=O)c3c(O)cc(O[C@@H]4O[C@H](CO[C@@H]5O[C@@H](C)[C@H](O)[C@@H](O)[C@H]5O)[C@@H](O)[C@H](O)[C@H]4O)cc3O2)cc1 [Didymin] | 1064.164 RFU
47 | CCOP(=O)(O)OCC [Diethyl phosphate] | 1033.984 RFU
48 | C[C@H]1O[C@@H](O[C@H]2[C@@H](O)C[C@H](O[C@H]3[C@@H](O)C[C@H](O[C@H]4CC[C@@]5(C)[C@H](CC[C@@H]6[C@@H]5CC[C@]5(C)[C@@H](C7=CC(=O)OC7)CC[C@]65O)C4)O[C@@H]3C)O[C@@H]2C)C[C@H](O)[C@@H]1O [Digitoxin] | 1074.946 RFU
49 | COc1cc(CCCO)ccc1O [Dihydroconiferyl alcohol] | 1331.121 RFU
50 | COc1cc(/C=C/C(=O)CC(=O)CCc2ccc(O)c(OC)c2)ccc1O [Dihydrocurcumin] | 1140.2 RFU
51 | O=C1c2ccc(O)cc2OCC1c1ccc(O)cc1 (centres unmarked) [Dihydrodaidzein] | 682.5875 RFU
52 | CCCCCC1=C(C)CCC1=O [Dihydrojasmone] | 884.3631 RFU
53 | CC(C)(C(=O)O)C(=O)O [Dimethylmalonic acid] | 890.7612 RFU
54 | C[C@@]12C[C@H](c3ccoc3)O[C@@]13C[C@H](OC3=O)[C@H]1[C@H]2C[C@@H]2C[C@H]1C(=O)O2 [Diosbulbin B] | 951.5417 RFU
55 | C[C@@H]1CC[C@@]2(OC1)O[C@H]1C[C@H]3[C@@H]4CC=C5C[C@@H](O[C@@H]6O[C@H](CO)[C@@H](O)[C@H](O)[C@H]6O)CC[C@]5(C)[C@H]4CC[C@]3(C)[C@H]1[C@@H]2C [Diosgenin glucoside] | 1057.302 RFU
56 | CC1(C)[C@@H](O[C@H]2O[C@H](C(=O)[O-])[C@@H](O)[C@H](O)[C@H]2O[C@@H]2O[C@H](C(=O)[O-])[C@@H](O)[C@H](O)[C@H]2O)CC[C@]2(C)[C@H]3C(=O)C=C4[C@@H]5C[C@@](C)(C(=O)O)CC[C@]5(C)CC[C@@]4(C)[C@]3(C)CC[C@@H]12.[K+].[K+] [Dipotassium glycyrrhizinate] | 813.8172 RFU and 1090.475 RFU
57 | O=P([O-])([O-])OP(=O)(O)O.[Na+].[Na+] [Disodium pyrophosphate] | 1213.966 RFU
58 | CC/C=C\C/C=C\C/C=C\C/C=C\C/C=C\CCCCCC(=O)O [Docosapentaenoic acid (22n-3)] | 931.501 RFU
59 | CCCCCCCCCCCC(=O)O[C@H](CC(=O)[O-])C[N+](C)(C)C [Dodecanoylcarnitine] | 868.7983 RFU
60 | CCO.C[C@H]1c2cccc(O)c2C(O)=C2C(=O)[C@]3(O)C(O)=C(C(N)=O)C(=O)[C@@H](N(C)C)[C@@H]3[C@@H](O)[C@@H]21.C[C@H]1c2cccc(O)c2C(O)=C2C(=O)[C@]3(O)C(O)=C(C(N)=O)C(=O)[C@@H](N(C)C)[C@@H]3[C@@H](O)[C@@H]21.Cl.Cl.O [Doxycycline (hyclate)] | 757.6717 RFU
61 | OC[C@@H](O)[C@H](O)[C@H](O)[C@@H](O)CO [Dulcite] | 1020.567 RFU
62 | OC[C@@H](O)[C@H](O)[C@H](O)[C@@H](O)CO [Dulcitol] | 642.9411 RFU
63 | Cc1cc(O)c2c(c1)C(=O)c1cc(O)cc(O[C@@H]3O[C@H](CO)[C@@H](O)[C@H](O)[C@H]3O)c1C2=O [Emodin-1-O-β-D-glucopyranoside] | 964.8621 RFU
64 | Cc1cc(O[C@@H]2O[C@H](CO)[C@@H](O)[C@H](O)[C@H]2O)c2c(c1)C(=O)c1cc(O)cc(O)c1C2=O [Emodin-8-glucoside] | 1174.326 RFU
65 | C[C@]12CC[C@H](O)C[C@@H]1CC[C@@H]1[C@@H]2CC[C@]2(C)C(=O)CC[C@@H]12 [Epiandrosterone] | 760.9004 RFU
